Test results from patent US20020091273A1, “Method for the regioselective preparation of substituted benzo[g]quinoline3-carbonitriles and benzo[g]quinazolines” (American Home Products Corporation, priority 2000, published 2002).
Where a name gives a salt, the structure may show the parent alone.

melting point	Structure (SMILES)
275 to 280 °C	COc1cc(Nc2ncnc3cc4cc(OCc5ccccc5)c(OC)cc4cc23)c(Cl)cc1Cl [Example 30, (8-Benzyloxy-7-methoxybenzo[g]quinazolin-4-yl)-(2,4-dichloro-5-methoxyphenyl)amine]
179 to 180 °C	COc1cc2cc(C(=O)OC(C)(C)C)c(N)cc2cc1OCc1ccccc1 [Example 7, 3-Amino-6-benzyloxy-7-methoxynaphthalene-2-carboxylic acid tert-butyl ester]
85 °C	COc1cc2c(cc1OCc1ccccc1)C(C#N)C2 (centres unmarked) [Example 3, 4-Benzyloxy-3-methoxybicyclo[4.2.0]octa-1,3,5-triene-7-carbonitrile]
> 300 °C	COc1cc2cc3c(=O)c(C#N)c[nH]c3cc2cc1OCc1ccccc1 [Example 8, 8-Benzyloxy-7-methoxy-4-oxo-1,4-dihydrobenzo[g]quinoline-3-carbonitrile]
210 to 225 °C	COc1cc2cc3c(Nc4ccc(Br)cc4F)ncnc3cc2cc1OCCN1CCOCC1 (as salt: hydrochloride) [Example 32, (4-Bromo-2-fluorophenyl)-[7-methoxy-8-(2-morpholin-4-yl-ethoxy)benzo[g]quinazolin4-yl]-amine]
241 to 243 °C	COc1cc2cc(C#N)c(N)cc2cc1OCc1ccccc1 [Example 29, 3-Amino-6-benzyloxy-7-methoxynaphthalene-2-carbonitrile]
103 to 105 °C	COc1cc(CBr)c(Br)cc1OCc1ccccc1 [Example 1, 5-(Benzyloxy)-1-bromo-2-(bromomethyl)-4-methoxybenzene]
109 to 110 °C	COc1cc2c(cc1OCc1ccccc1)C(C#N)(Sc1ccccc1)C2 (centres unmarked) [Example 5, 4-Benzyloxy-3-methoxy-7-phenylsulfanylbicyclo [4.2.0]octa-1,3,5-triene-7-carbonitrile]
114 to 115 °C	COc1cc2c(cc1OCc1ccccc1)C(C#N)(Sc1ccc(Cl)cc1)C2 (centres unmarked) [Example 4, 4-Benzyloxy-7-(4-chloro-phenylsulfanyl)-3-methoxybicyclo [4.2.0]octa-1,3,5-triene-7-carbonitrile]
52 to 53 °C	COc1cc(CCC#N)c(Br)cc1OCc1ccccc1 [Example 2, 3-(4-Benzyloxy-2-bromo-5-methoxyphenyl)-propionitrile]

Second part, the compound before the results:

Structure (SMILES)	melting point
COc1cc2cc3c(Cl)ncnc3cc2cc1OCCN1CCOCC1 [Example 31, 4-Chloro-7-methoxy-8-(2-morpholin-4-yl-ethoxy)benzo[g]quinazoline]	166 to 168 °C
COc1cc2cc3c(Nc4ccc(Sc5nccn5C)c(Cl)c4)c(C#N)cnc3cc2cc1OCCn1ccnn1 [Example 22, 4-[3-Chloro-4-(1-methyl-1H-imidazol-2-ylsulfanyl)phenylamino]-7-methoxy-8-(2-[1,2,3]triazol-1-yl-ethoxy)benzo[g]quinoline-3-carbonitrile]	201 to 207 °C
COc1cc2cc3c(Cl)c(C#N)cnc3cc2cc1O [Example 14, 4-Chloro-8-hydroxy-7-methoxybenzo[g]quinoline-3-carbonitrile]	> 300 °C
COc1cc2cc(C(=O)OC(C)(C)C)c(N)cc2cc1OCCN1CCOCC1 [Example 10, 3-Amino-7-methoxy-6-(2-morpholin-4-yl-ethoxy)-naphthalene-2-carboxylic acid tert-butyl ester]	125 to 127 °C
COc1cc2cc3c(Nc4ccc(Sc5nccn5C)c(Cl)c4)c(C#N)cnc3cc2cc1O [Example 15, 4-[3-Chloro-4-(1-methyl-1 H-imidazol-2-ylsulfanyl)phenylamino]-8-hydroxy-7-methoxybenzo[g]quinoline-3-carbonitrile]	> 300 °C
COc1cc2cc3c(=O)c(C#N)c[nH]c3cc2cc1OCCN1CCOCC1 [Example 12, 7-Methoxy-8-(2-morpholin-4-yl-ethoxy)-4-oxo-1,4-dihydrobenzo[g]quinoline-3-carbonitrile]	275 °C (dec.)
COc1cc(Nc2c(C#N)cnc3cc4cc(OCCCN5CCOCC5)c(OC)cc4cc23)c(Cl)cc1Cl [Example 25, 4-(2,4-Dichloro-5-methoxyphenylamino)-7-methoxy-8-(3-morpholin-4-yl-propoxy)benzo[g]quinoline-3-carbonitrile]	205 to 208 °C
COc1cc2cc(C(=O)OC(C)(C)C)c(N)cc2cc1O [Example 9, 3-Amino-6-hydroxy-7-methoxy-naphthalene-2-carboxylic acid tert-butyl ester]	262 to 263 °C
COc1cc(Nc2c(C#N)cnc3cc4cc(OCCCCl)c(OC)cc4cc23)c(Cl)cc1Cl [Example 24, 8-(3-Chloropropoxy)-4-(2,4-dichloro-5-methoxyphenylamino)-7-methoxybenzo[g]quinoline-3-carbonitrile]	220 to 223 °C
COc1cc2cc3c(=O)[nH]cnc3cc2cc1OCCN1CCOCC1 [Example 11, 7-Methoxy-8-(2-morpholin4-yl-ethoxy)-3H-benzo[g]quinazolin-4-one]	230 to 232 °C
COc1cc2cc3c(=O)c(C#N)c[nH]c3cc2cc1O [Example 13, 8-Hydroxy-7-methoxy-4-oxo-1,4-dihydrobenzo[g]quinoline-3-carbonitrile]	> 300 °C
COc1cc(Nc2ncnc3cc4cc(OCCN5CCOCC5)c(OC)cc4cc23)c(Cl)cc1Cl (as salt: hydrochloride) [Example 33, (2,4-Dichloro-5-methoxyphenyl)-[7-methoxy-8-(2-morpholin-4-yl-ethoxy)benzo[g]-quinazolin-4-yl]-amine]	258 to 260 °C
COc1cc2cc3c(Nc4ccc(Sc5nccn5C)c(Cl)c4)c(C#N)cnc3cc2cc1OCCN1CCOCC1 [Example 17, 4-[3-Chloro-4-(1-methyl-1H-imidazol-2-ylsulfanyl)phenylamino]-7-methoxy-8-(2-morpholin-4-yl-ethoxy)benzo[g]quinoline-3-carbonitrile]	> 300 °C
